Experimental data published in patent US20250375468A1, “NOVEL RAS INHIBITORS” (KHR Biotec GmbH, priority 2022, published 2025).

Key:
Test in all cases: NanoBit assay for RAS activation (RAS-LgBiT / CRAF RBD-SmBiT)
Type in all cases: cell-based
[1] = target: T1, HRAS G12V (Homo sapiens, UniProt P01112, G12V); details: HRAS G12V with CRAF RBD, 2 h incubation with inhibitor, serum free DMEM
T1 construct: K, N and HRAS G12V (full length) was cloned with Xho I and Bgl Il to LgBit; expressed in transfected cells
Protocol: (§1) FIGS. 1a) and 1b): NanoBit assay for RAS activation (KRAS G12V, NRAS G12V, HRAS G12V)
(§2) N-terminal LgBiT and C-terminal SmBIT construct was purchased from Promega and K, N and HRAS G12V (full length) was cloned with Xho I and Bgl Il to LgBit and CRAF Ras binding domain (1-149) was cloned with EcoRI and Bgl Il to SmBit. For transfections, 1 μg or 2 μg of (12 well/6 well) plasmids were transfected into cells with 0.5 mM of PEI reagent in 100 μl or 200 μl PBS. One day after transfection, cells were harvested and seeded into 96 well white plates, half area (Greiner). After an additional day the medium was changed to serum free DMEM and the cells were incubated for 2 h with inhibitors. NanoGlo assay was performed according to the manufacturer's instructions. The luminescence was measured using Tecan infinite (Tecan).

[2] = target: T2, KRAS G12V (Homo sapiens, UniProt P01116, G12V); details: KRAS G12V with CRAF RBD, 2 h incubation with inhibitor, serum free DMEM
T2 construct: K, N and HRAS G12V (full length) was cloned with Xho I and Bgl Il to LgBit; expressed in transfected cells
Protocol: as §1, §2

[3] = target: T3, NRAS G12V (Homo sapiens, UniProt P01111, G12V); details: NRAS G12V with CRAF RBD, 2 h incubation with inhibitor, serum free DMEM
T3 construct: K, N and HRAS G12V (full length) was cloned with Xho I and Bgl Il to LgBit; expressed in transfected cells
T3 sequence (P01111 whole entry G12V): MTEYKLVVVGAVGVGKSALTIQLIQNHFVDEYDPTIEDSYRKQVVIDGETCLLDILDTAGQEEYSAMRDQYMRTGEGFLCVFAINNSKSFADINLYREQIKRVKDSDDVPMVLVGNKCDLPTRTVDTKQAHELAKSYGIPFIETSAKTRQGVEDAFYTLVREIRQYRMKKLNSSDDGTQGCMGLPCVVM
Protocol: as §1, §2

CC[PH](CC)(CC)[Au][S][C@@H]1O[C@H](COC(C)=O)[C@@H](OC(C)=O)[C@H](OC(C)=O)[C@H]1OC(C)=O [Auranofin, (2,3,4,6-Tetra-O-acetyl-1-thio-β-D-glucopyranosato)(triethylphosphan)gold]
inhibits: RAS activation (NanoBit luminescence), H-RAS [1] | RAS activation (NanoBit luminescence), K-RAS [2] | RAS activation (NanoBit luminescence), N-RAS [3]
